Patent US9320698B2, “Peptide tyrosinase inhibitors and uses thereof” (Escape Therapeutics, Inc., priority 2011, dated 2016)
No end group written: not given here.

Experiments:
[1] = system: melanocytes, keratinocytes and fibroblasts; settings: for oligopeptides a minimum ratio (3 mM / IC50)
Source text: An ideal therapeutic agent should have a ratio that is higher than two to be considered safe for long-term use in humans.

[2] = target: T1, human tyrosinase (Homo sapiens, UniProt P14679); assay: Inhibition of freshly extracted human tyrosinase, L-dopa as substrate; format: biochemical; settings: at 200 μM
T1 construct: cells were harvested and lysed using 1% Triton X-100 in 0.067 M potassium phosphate buffer (pH 6.8); endogenous in cells; host or cells: primary human melanocytes (gift from Dr. Todd Ridky, Stanford), clarified Triton X-100 lysate
T1 sequence (P14679 19-529): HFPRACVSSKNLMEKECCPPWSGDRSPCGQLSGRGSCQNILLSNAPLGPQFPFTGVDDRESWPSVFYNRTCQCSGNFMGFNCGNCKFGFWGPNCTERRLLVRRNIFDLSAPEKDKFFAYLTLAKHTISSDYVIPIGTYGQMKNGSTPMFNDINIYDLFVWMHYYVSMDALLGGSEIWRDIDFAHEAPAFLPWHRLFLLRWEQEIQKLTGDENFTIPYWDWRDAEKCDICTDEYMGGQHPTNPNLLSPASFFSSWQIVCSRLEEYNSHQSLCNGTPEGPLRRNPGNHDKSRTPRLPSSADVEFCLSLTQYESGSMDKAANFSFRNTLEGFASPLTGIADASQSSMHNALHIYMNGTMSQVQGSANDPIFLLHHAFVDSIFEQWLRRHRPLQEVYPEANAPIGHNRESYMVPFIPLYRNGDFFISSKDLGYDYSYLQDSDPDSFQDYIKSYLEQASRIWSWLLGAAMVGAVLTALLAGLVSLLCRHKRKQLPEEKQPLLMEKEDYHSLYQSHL

[3] = system: primary human melanocytes; settings: 72 h
Experimental: (§1) The three cell types were incubated with varying concentrations of the test compounds for 72 h at 37° C. and then processed using the MTT assay. Data are presented as % toxicity relative to the control as a function of concentration, and plotted as means±S.E of 5 independent trials. **p<0.01.
(§2) Keratinocytes, fibroblast, and melanocyte proliferation rates were determined using a TACS® MTT Cell Proliferation Kit (R&D systems, Minneapolis, Minn.). Cells were plated at 2.5×10^4/well in 96-well plates in a humidified atmosphere with 5% CO2 at 37° C. Twenty-four h after plating, test samples were added and cultures were incubated for an additional 72 h. The remainder of the procedure was performed following the manufacturer's protocol.
(§3) Proliferation rates were then assessed at 3 d using an MTT assay.

[4] = system: primary human fibroblasts; settings: 72 h
Experimental: as §1, §2, §3

[5] = system: primary human keratinocytes; settings: 72 h
Experimental: as §1, §2, §3

[6] = system: MNTI cells; assay: Melanin content measurement in MNTI cells; format: cell-based, human; settings: 50 μM HQ, 3 days
[7] = target: T2, mushroom tyrosinase (Agaricus bisporus, UniProt C7FF04); assay: Kinetic studies of mushroom tyrosinase (Lineweaver-Burk, nonlinear regression); format: biochemical
Experimental: The concentration of mushroom tyrosinase [E] was 24 units/ml. […] [I] ranged from 0 to 0.3 mM. Data were obtained as mean values of 1/V, inverse of the increase of absorbance at wavelength of 475 nm per minute (ΔA475/min) for 5 independent trials. Michaelis Menten constant (Km) and the dissociation constant Ki were derived using nonlinear regression analysis with GraphPad Prism 5.
Experiments were conducted using the same protocol as above except for changes in concentration of [E], [S] and [I]. [E] was 24 units/ml, [S] was 0.05, 0.1, 0.25, 0.5, 0.75 and 1 mM, and [I] was 0, 0.03, 0.1, 0.3 and 1 mM. Lineweaver-Burk reciprocal plots were generated to determine the mode of inhibition (Burk, D., Lineweaver, H., and Horner, C. K. (1934) J Bacteriol 27, 325-340), and Michaelis Menten plots were used to determine Vmax and Km. Nonlinear regression using GraphPad Prism 5 software was used to determine Ki. Prism calculates the Ki using the equation of Cheng, Y., and Prusoff, W. H. (1973) Biochem Pharmacol 22, 3099-3108.

[8] = system: primary human melanocytes; settings: 6 d
Experimental: (§4) Cells were seeded at equal numbers and incubated with varying concentrations of test samples for 1 day, 3 days and 6 days, harvested, stained with trypan blue, and then counted. The assay was carried out in triplicate, and the % cell death was calculated according to the formula shown in Examples.
(§5) Cellular toxicity was measured using a trypan blue dye exclusion assay. Cells were cultured in 6-well plates at a density of 4×10^5 cells/well for 1, 3, or 6 d in 2 ml of medium. […] The plates were incubated at 37° C. in a humidified 5% CO2 chamber, harvested at the appropriate time, treated with trypan blue, and then counted using a hemacytometer. Cytotoxicity was measured according to the following formula: [1−(# of cells in control−# of live cells in test sample)/# of cells in control]×100%.
(§6) The cytotoxic effect of P16-18 on primary human melanocytes, keratinocytes, and fibroblasts were then assessed at 1, 3, and 6 d using trypan blue exclusion.

[9] = system: primary human fibroblasts; settings: 6 d, 30 μM
Experimental: as §4, §5, §6

[10] = system: primary human keratinocytes; settings: 6 d
Experimental: as §4, §5, §6

[11] = target: tyrosinase; settings: read-out: published IC50; published value; cited from earlier work
[12] = target: T2, mushroom tyrosinase; assay: Enzymatic assay of mushroom tyrosinase, L-tyrosine as substrate; format: biochemical
Experimental: The assay mixture was incubated at 37° C.
In order to assess this potential, their inhibitory activity against mushroom tyrosinase was tested.

T2 sequence (C7FF04 1-392): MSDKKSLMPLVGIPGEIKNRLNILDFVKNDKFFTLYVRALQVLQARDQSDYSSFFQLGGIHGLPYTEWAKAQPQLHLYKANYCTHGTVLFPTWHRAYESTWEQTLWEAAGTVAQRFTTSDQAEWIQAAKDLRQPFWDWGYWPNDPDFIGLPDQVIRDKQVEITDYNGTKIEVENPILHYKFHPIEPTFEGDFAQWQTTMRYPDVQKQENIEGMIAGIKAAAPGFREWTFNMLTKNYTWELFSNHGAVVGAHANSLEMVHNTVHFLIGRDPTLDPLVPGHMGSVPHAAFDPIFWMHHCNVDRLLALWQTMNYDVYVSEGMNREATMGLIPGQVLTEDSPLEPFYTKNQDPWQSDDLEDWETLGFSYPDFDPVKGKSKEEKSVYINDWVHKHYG
T2 sequence (G1K3P4 entry or part of it, further chain): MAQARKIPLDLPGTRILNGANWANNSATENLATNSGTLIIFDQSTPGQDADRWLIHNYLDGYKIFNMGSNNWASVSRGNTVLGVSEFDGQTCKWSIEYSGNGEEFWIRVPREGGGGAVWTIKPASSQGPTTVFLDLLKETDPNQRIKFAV

Question: Which results are given for `Oc1ccc(O)cc1` [HQ, hydroquinone]?
Answer: ratio of 50% cytotoxic concentration to IC50 [1]: significantly less than one; human tyrosinase activity reduced by [2]: 5%; reduction in proliferation rate ([3]; 100 μM): 50±3%; proliferation inhibited by ([3]; 3 mM): over 90%; reduction in proliferation rate ([4]; 100 μM): 45±2%; proliferation inhibited by ([4]; 3 mM): over 90%; reduction in proliferation rate ([5]; 100 μM): 30±3%; proliferation inhibited by ([5]; 3 mM): up to 63±3%; melanin content reduced by [6]: 50±4%; Nature of inhibition ([7]; Table 4, from Lineweaver Burk plots): competitive; melanocyte cell death ([8]; 20 μM): 50±3%; cell death ([8]; 30 μM): 70±3%; cytotoxicity / cell death ([8]; 100 μM): 100%; cell death [9]: 60±2%; cell death ([10]; 300 μM): 42±3%; rate of cell death ([10]; 3 mM): 77±4%; IC50 [11]: ~700 µM

Question: With “RRFVCC (chains of the parent or of the whole protein) [Peptide P15]” as the compound, how does the IC50 ([12]; Table 4, mushroom tyrosinase) read?
Answer: 1120 ± 50 µM

Question: And the IC50 ([12]; mushroom tyrosinase)?
Answer: 1100 µM

Question: What about the Ki ([7]; Table 4, mushroom tyrosinase) of the same compound?
Answer: 167 ± 11 µM

Question: Which “tyrosinase inhibition (in words)” value ([12]; mushroom tyrosinase) does the source give for RRFVCC [Peptide P15] here?
Answer: weak inhibition

Question: With RRFVLL [Peptide P14] as the compound, how does the IC50 ([12]; mushroom tyrosinase) read?
Answer: 1800 µM

Question: Which “human tyrosinase activity reduced by” value [2] does the source give for RRRYWYYR [Peptide P17] here?
Answer: 12%

Question: For RRWWRRYY [Peptide P16], which “human tyrosinase activity reduced by” value [2] is on record?
Answer: 30%

Question: Which “human tyrosinase activity reduced by” value [2] does the source give for RRYWYWRR [Peptide P18] here?
Answer: 25%
